We go through 27 compounds from PubChem BioAssay (NCI).

The TGI is the concentration giving total growth inhibition. Read a low TGI as more potent growth arrest.

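Grown in 96-well plates, cells were treated for 48 hours with each compound at five concentrations. Insufficient inhibition: endpoint recorded as highest concentration tested. TGI is the concentration that stops growth completely.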

Holding throughout (assay): DTP human tumour cell line panel, 48 h
Assay [1] concerns BT-549 breast.
Assay [2] deals with CAKI-1 renal.
For assay [3], the system named is HS 578T breast.
The test system of assay [4] is LOX IMVI melanoma.
Assay [5] relates to MCF7 breast.
The test system of assay [6] is NCI-H23 lung.
Assay [7] relates to PC-3 prostate.
Assay [8] relates to RPMI-8226 leukemia.
Assay [9] concerns SF-268 CNS.
The test system of assay [10] is SW-620 colon.
In assay [11] the test system is OVCAR-3 ovarian.

Regarding `COCN1C(=O)[C@@H]2CCCN2C(=O)c2cc(Cl)ccc21`, the concentration for total growth inhibition (TGI) in assay [1], in assay [2], in assay [3], in [4], in assay [5] and in [6] was above 100 µM in each case. Also, the TGI in assay [7], in assay [8], in assay [9] and in assay [10] was above 100 µM throughout.

For `COc1ccc(N2C(=O)C3c4[nH]c5cc(Cl)ccc5c4C4CCC(C(C)(C)C)CC4C3C2=O)cc1` (stereo unspecified), the TGI in assay [1], in [3], in assay [5], in assay [6], in assay [11] and in assay [7] was above 100 µM in each case. The TGI in assay [8], in assay [9] and in [10] was above 100 µM throughout.

Consider `O=C1C=C(NCCc2cc(Cl)c(O)c(Cl)c2)C(=O)c2[nH]cnc21`, for which the TGI in [1] was above 100 µM; in [3], above 100 µM; in [4], above 100 µM; in assay [5], 64.8 µM; in assay [6], 36.8 µM; in [11], 47.2 µM. The TGI in assay [7], in assay [8] and in assay [10] was above 100 µM throughout.

On to `O=C1CCCCCCCCCCC1CN(Cc1ccccc1)Cc1ccccc1` (stereo unspecified), for which the TGI is above 100 µM in assay [1]; above 100 µM in assay [3]; 69.4 µM in assay [4]; 68.1 µM in assay [5]; above 100 µM in assay [6]; above 100 µM in assay [11]. Further, the TGI in [7], in [8], in assay [9] and in [10] was above 100 µM throughout.

For `C=CCOCn1ccc(NC(=O)c2ccccc2)nc1=O`, the TGI in assay [1], in [2], in [3], in assay [4], in [5] and in assay [6] was above 100 µM each time. In addition, the TGI in assay [7], in assay [8], in assay [9] and in [10] was above 100 µM throughout.

In the case of `O=C(/C=C/c1ccc(O)cc1)c1cc(O)cc(O)c1`, the TGI in [1] is 29.8 µM; in assay [2], 43.8 µM; in assay [3], above 100 µM; in assay [4] it was 17.3 µM; in assay [5], 12.3 µM; in assay [6], 43.3 µM. Further, the TGI in [11] was 29.4 µM; in [7], 23.2 µM; in assay [8], 21.3 µM; in assay [9], 54.3 µM.

As for `Cc1cn(C2CC(N=[N+]=[N-])C(C(=O)O)O2)c(=O)[nH]c1=O` (stereo unspecified), the TGI in [1], in assay [2], in [3], in [5], in assay [6] and in assay [11] was above 100 µM throughout. Besides, the TGI in [7], in assay [8], in assay [9] and in assay [10] was above 100 µM in each case.

As to `COC(=O)c1cn(CCCCO)nn1`, the total growth inhibition concentration (TGI) in assay [1], in assay [2], in [3], in assay [4], in [5] and in [6] was above 100 µM throughout. The TGI in assay [7], in assay [9] and in assay [10] was above 100 µM in each case.

Consider `COc1cc2c(cc1OC)CN1CCc3ccccc3CC1C2` (stereo unspecified), for which the TGI in [1], in assay [2], in assay [3], in [4], in [5] and in assay [6] was above 100 µM in each case. Besides, the total growth inhibition concentration (TGI) in assay [11], in assay [7] and in [10] was above 100 µM throughout.

In the case of `CN1CC(S(=O)(=O)c2ccccc2)CC(S(=O)(=O)c2ccccc2)C1c1ccccc1` (stereo unspecified), the TGI in [1] amounted to 28.5 µM; in assay [2], 26 µM; in assay [3], 84.1 µM; in assay [4] it was 29.7 µM; in assay [5], 30 µM; in assay [11], 27.8 µM. For the same compound, the TGI stood at 27.1 µM in assay [7], 37.7 µM in assay [9] and 34.4 µM in assay [10].

On to `O=C(Nn1c(-c2ccccc2)nc2ccccc2c1=O)c1ccc(O)cc1`, for which the TGI in assay [1], in [3], in assay [5], in assay [6], in [11] and in [7] was above 100 µM in each case. For the same compound, the TGI in assay [8], in assay [9] and in assay [10] was above 100 µM each time.

With `COc1ccc(C(=O)C(CC2C(=O)CC(C)(C)C(C(=O)C(=O)Nc3c(C)cccc3C)C2=O)c2ccc(OC)cc2)cc1` (stereo unspecified), the TGI in [1], in assay [2], in assay [3], in assay [4], in assay [5] and in [6] was above 100 µM in each case. For the same compound, the TGI in [11], in [7], in [9] and in assay [10] was above 100 µM each time.

Regarding `CCN(CC)c1nc(=O)c(C(=O)C(C)(C)C)c(C(C)(C)C)o1`, the TGI in assay [1], in assay [2], in [3], in assay [4], in [5] and in assay [6] was above 100 µM throughout. Besides, the concentration for total growth inhibition (TGI) in assay [7], in assay [8], in assay [9] and in [10] was above 100 µM each time.

For the compound `CCOC(=O)c1nc2cc(C(F)(F)F)ccc2nc1Oc1ccc(C(=O)OC)cc1`, the concentration for total growth inhibition (TGI) in assay [1], in assay [2], in assay [3], in assay [4], in assay [5] and in assay [11] was above 100 µM throughout. For the same compound, the total growth inhibition concentration (TGI) in [7], in assay [8], in assay [9] and in assay [10] was above 100 µM throughout.

Take `COc1ccc2[nH]cc(CN3CCC(CO)(c4ccccc4)CC3)c2c1`: the TGI in assay [1] is above 100 µM; in assay [3], 70.9 µM; in [4], 37 µM; in [5], 37.9 µM; in assay [6], above 100 µM; in [11] it was above 100 µM. Further, the TGI in assay [7] was above 100 µM; in [8], 66 µM; in assay [9], 34.8 µM; in [10], 47.8 µM.

Consider `CN(C)c1ccc(/C=C2\N=C(c3ccccc3)N(/N=C3\C(=O)Nc4ccccc43)C2=O)cc1`, for which the TGI in assay [1], in assay [2], in [3], in assay [4], in assay [5] and in assay [6] was above 100 µM in each case. Besides, the TGI in assay [11] is 65.5 µM; in assay [7] it was above 100 µM; in assay [9] it was above 100 µM; in assay [10], above 100 µM.

For the compound `C[N+]1(CCCC[N+]2(C)CCCCCCC2)CCCCCCC1`, the TGI was above 100 µM in assay [1]; above 100 µM in [2]; 60.4 µM in assay [3]; above 100 µM in assay [4]; above 100 µM in assay [6]; above 100 µM in assay [11]. Besides, the TGI in [7], in [8], in assay [9] and in assay [10] was above 100 µM each time.

As to `CC(C)N(C(=O)c1ccc(NCc2cc(O)ccc2O)cc1)C(C)C`, the TGI in assay [1] was 30.7 µM; in assay [2] it was 27.2 µM; in [3] it was 78.7 µM; in assay [4], 30.4 µM; in assay [5] it was 87.8 µM; in assay [6], 42.2 µM. The total growth inhibition concentration (TGI) was found to be 25.1 µM in [11], 52.3 µM in assay [7], 36.2 µM in assay [9] and 82 µM in assay [10].

For the compound `O=C(Nc1ccc(N2C(=O)CSC2c2cccs2)cc1)c1ccc(N2C(=O)CSC2c2cccs2)cc1` (stereo unspecified), the TGI in assay [1] was above 100 µM; in assay [2] it was above 100 µM; in assay [3] it was above 100 µM; in [4], above 100 µM; in assay [5] it was above 100 µM; in assay [6], 96.4 µM. The TGI in assay [11], in [7], in [9] and in assay [10] was above 100 µM throughout.

Regarding `CCN(CC)CCNc1ccc2ncn3c4c(OC)ccc(=O)c4c(O)c1c23`, the TGI in assay [1] was above 100 µM; in assay [2], above 100 µM; in assay [3], above 100 µM; in assay [5], above 70.7 µM; in assay [6], above 92.9 µM; in [11], above 100 µM. The TGI in assay [7] is above 100 µM; in assay [8], 17.8 µM; in assay [9] it was above 95.2 µM; in [10], above 43.8 µM.

In the case of `CCCCCCCCCCCCCCC[C@@H](O)C[N+](C)(C)CCO`, the TGI was 3.63 µM in assay [1]; 4.1 µM in [2]; 7.53 µM in assay [3]; 33.6 µM in [5]; 10.7 µM in assay [6]; above 93.6 µM in assay [11]. For the same compound, the TGI in assay [8] was above 100 µM; in assay [9], 6.66 µM; in [10], above 45.4 µM.

Consider `Nc1ccc(-c2nc3ccccc3s2)cc1F`, for which the TGI in [1] was above 100 µM; in assay [2] it was 54.4 µM; in assay [3], above 100 µM; in assay [4], above 100 µM; in assay [5], above 100 µM; in [6], above 100 µM. Moreover, the TGI in assay [11] was 77.6 µM; in [7], above 100 µM; in assay [9], above 100 µM; in assay [10], above 100 µM.

Turning to `O=C1c2ccccc2-n2c1nc1cc(Cl)ccc1c2=O`, the TGI was above 100 µM in assay [1]; above 100 µM in assay [2]; above 100 µM in assay [3]; 76.2 µM in assay [4]; above 100 µM in assay [5]; above 100 µM in assay [6]. Further, the TGI in assay [11], in assay [7], in assay [8] and in assay [9] was above 100 µM each time.

`C=CCN(c1cc(OCc2ccccc2)c2c(c1)c(C)cn2S(=O)(=O)c1ccccc1)S(C)(=O)=O`: the TGI in assay [1], in [2], in assay [3], in [4], in assay [6] and in assay [11] was above 100 µM each time. Moreover, the total growth inhibition concentration (TGI) in assay [7], in [8], in assay [9] and in [10] was above 100 µM in each case.

Turning to `N#CC1C(=O)NC2=C(CCOc3c2ccc2ccccc32)C1c1ccc(F)cc1` (stereo unspecified), the TGI is above 100 µM in assay [1]; 71.4 µM in assay [2]; 43.8 µM in [3]; above 100 µM in [5]; 74 µM in assay [6]; 40.7 µM in assay [11]. For the same compound, the results for the TGI in [7], in assay [9] and in assay [10] were 54.8 µM, 88.8 µM and above 100 µM, respectively.

Regarding `Cc1cccc(Nc2nc(NNC(=O)Cc3ccccc3)nc(NNC(=O)c3ccncc3)n2)c1`, the TGI in [1], in assay [2], in assay [3], in assay [4], in [5] and in assay [6] was above 10 µM each time. The TGI in [7], in [8], in assay [9] and in assay [10] was above 10 µM throughout.

Consider `COC(=O)C(CCSc1ccccc1)C(=O)OC`, for which the TGI in assay [1], in assay [2], in assay [3], in assay [5], in assay [6] and in [11] was above 100 µM throughout. In addition, the concentration for total growth inhibition (TGI) in assay [7], in assay [8] and in [10] was above 100 µM throughout.
